Reference: publication PMC6821791, “Phase I Trial of Pyragrel, a Novel Thromboxane Synthetase Inhibitor, to Evaluate the Safety, Tolerability, and Pharmacokinetics in Healthy Volunteers” (Frontiers in Pharmacology, 2019)

Columns and labels:
[1] = Part I single-ascending-dose plasma pharmacokinetics (HPLC-MS/MS, noncompartmental); format: in vivo, human; details: for AUCINF / AUClast / Cl / Cmax / Tmax / Vz / t1/2: Part I, mean ± SD
Experimental: (§1) Pyragrel administration regimens are as follows: In the single-escalating-dose study (Part I), a total of 52 subjects are enrolled to receive one of three treatments (pyragrel, ozagrel, or placebo, diluted in 500 Ml normal saline) as a 3-h i.v. infusion. Six dose levels of pyragrel (30, 60,120, 180, 240, 300 mg) were intravenously infused to healthy subjects. Of the 12 subjects each at the first three dose groups (30, 60, and 120 mg), 8 received pyragrel, 2 received ozagrel (80 mg), and 2 received placebo. Eight subjects were assigned as 4/2/2 for pyragrel, ozagrel, and placebo at the 180 mg level. Only four subjects were enrolled at the 240- and 300-mg group each; all received pyragrel. […] In the saline-volume-changed study (Part II), the safety and pharmacokinetics of pyragrel were assessed by decreasing the volume of dilution saline. Four subjects received a single 3 h infusion of pyragrel 240 mg diluted in 250 ml saline instead of the 500 ml used in Part I. Blood samples were collected at multiple time points before and after the initiation of the infusion in Part I and Part II; 15 blood samples were predetermined as follows: before drug administration (time 0), 0.5, 1, 2, 3 (4 samples collected during infusion), 3.25, 3.5, 4, 5, 7, 9, 11, 15, 24, and 48 h (10 samples collected post infusion) after the initiation of the infusion. In the multiple-dose study (Part III), 12 subjects received a single 3 h infusion of 180 mg pyragrel (diluted in 250 ml saline) on Day 1 and Day 6 and twice 3 h infusion of 180 mg pyragrel from Day 2 to 5; 14 blood samples were collected on Day 1 and Day 6 before drug administration (0 h), 0.5, 1, 2, 3, 3.25, 3.5, 4, 5, 7, 9, 11, 15, 24 h after the initiation of the infusion; moreover, 5 ml cubital vein blood was collected each time right before pyragrel infusion on Day 2 to Day 5. In the 3×3 crossover study (Part IV), 12 subjects were randomized to receive each of the three dosing groups (60, 120, or 240 mg) of pyragrel (diluted with 250 ml saline, 3 h infusion) per period, with a 7-day washout period between doses. Sixteen blood samples were collected as follows: before drug administration (0 h), 0.17, 0.35, 0.5, 1, 2, 3, 3.25, 3.5, 4, 5, 7, 9, 11, 15, and 24 h after the initiation of the infusion at each period. In the prolonged infusion study (Part V), four subjects received continuous 24 h infusion of pyragrel 360 mg (diluted in 600 ml saline); 19 blood samples were collected as follows: before drug administration (0 h), 0.25, 0.5, 1, 2, 4, 8, 12, 16, 20 (nine samples collected during administration), 24.25, 24.5, 25, 26, 28, 30, 32, 36, and 48 h after the initiation of the infusion (details shown in Figure 1 ). In all five cohorts, 5 ml of cubital vein blood was collected with a sodium heparin anticoagulant tube and centrifuged at 3000 r·min^-1. Each plasma sample was divided into two aliquots and stored at −20°C until further bioanalysis. […] Briefly, 10 µl of the extract drug from […] was injected onto a Zorbax EcLipse XDB C18 column (2.1 mm × 150 mm, 5 μm) (Agilent, USA) using isocratic elution with a mobile phase composed of methanol, water, and formic acid (65:35:0.1, v/v/v). Determination of the analytes was achieved by tandem-mass spectrometry with positive electrospray ionization.
(§2) Pharmacokinetic parameters were calculated using the noncompartmental model (NCA module), WinNonlin 6.1 (Pharsight Corporation, Mountain View, CA, USA). Statistical analysis was performed with SPSS 18. The actual dosing and sampling times were utilized in the analysis. Pharmacokinetic parameters were summarized by dose regimens using descriptive statistics, including n, mean, and the coefficient of variation (CV). For Tmax, only n, min, median, and max were reported.

[2] = Part III multiple-dose study, plasma pharmacokinetics; format: in vivo, human; details: for AUCINF / AUClast / Cl / Cmax / Tmax / Vz / t1/2: metabolite in plasma
Experimental: as §1, §2

[3] = Acute toxicity study in mice; format: in vivo
[4] = metabolite in plasma after single 3 h i.v. infusion of pyragrel 30 mg, n=8
[5] = metabolite in plasma after single 3 h i.v. infusion of pyragrel 60 mg, n=8
[6] = metabolite in plasma after single 3 h i.v. infusion of pyragrel 120 mg, n=8
[7] = metabolite in plasma after single 3 h i.v. infusion of pyragrel 180 mg, n=4
[8] = metabolite in plasma after single 3 h i.v. infusion of pyragrel 240 mg, n=4
[9] = metabolite in plasma after single 3 h i.v. infusion of pyragrel 300 mg, n=4
[10] = Part III, multiple dose i.v. infusion of 180 mg pyragrel

COc1cc(CCC(=O)O)ccc1OCc1nc(C)c(C)nc1C [BBS]
Pharmacokinetic process over the dose range ([1]; 30–300 mg dose range): linear | AUCINF [1, 4]: 1016.64 ± 206.08 ng·h/mL | AUClast [1, 4]: 1006.02 ± 209.31 ng·h/mL | Cl [1, 4]: 30.60 ± 6.23 L/h | Cmax [1, 4]: 216.34 ± 48.23 ng/mL | Tmax [1, 4]: 3.22 ± 0.36 h | Vz [1, 4]: 252.46 ± 113.75 L | t1/2 [1, 4]: 5.90 ± 2.84 h | AUCINF [1, 5]: 1815.58 ± 430.74 ng·h/mL | AUClast [1, 5]: 1802.57 ± 421.18 ng·h/mL | Cl [1, 5]: 34.63 ± 7.86 L/h | Cmax [1, 5]: 389.37 ± 90.87 ng/mL | Tmax [1, 5]: 3.25 ± 0.13 h | Vz [1, 5]: 377.35 ± 68.16 L | t1/2 [1, 5]: 7.94 ± 2.48 h | AUCINF [1, 6]: 3566.52 ± 1518.01 ng·h/mL | AUClast [1, 6]: 3553.23 ± 1512.83 ng·h/mL | Cl [1, 6]: 37.91 ± 12.00 L/h | Cmax [1, 6]: 753.36 ± 287.7 ng/mL | Tmax [1, 6]: 3.31 ± 0.18 h | Vz [1, 6]: 369.08 ± 168.49 L | t1/2 [1, 6]: 6.89 ± 2.29 h | AUCINF [1, 7]: 6563.91 ± 1179.31 ng·h/mL | AUClast [1, 7]: 6542.7 ± 1174.8 ng·h/mL | Cl [1, 7]: 28.22 ± 5.92 L/h | Cmax [1, 7]: 1490.69 ± 358.43 ng/mL | Tmax [1, 7]: 3.31 ± 0.24 h | Vz [1, 7]: 301.81 ± 76.25 L | t1/2 [1, 7]: 7.41 ± 0.97 h | AUCINF [1, 8]: 8910.06 ± 3388.83 ng·h/mL | AUClast [1, 8]: 8843.82 ± 3366.35 ng·h/mL | Cl [1, 8]: 29.59 ± 9.55 L/h | Cmax [1, 8]: 1878.22 ± 681.05 ng/mL | Tmax [1, 8]: 3.25 ± 0.20 h | Vz [1, 8]: 374.58 ± 119.99 L | t1/2 [1, 8]: 8.81 ± 0.46 h | AUCINF [1, 9]: 10549.78 ± 3061.74 ng·h/mL | AUClast [1, 9]: 10466.78 ± 3028.35 ng·h/mL | Cl [1, 9]: 30.84 ± 11.23 L/h | Cmax [1, 9]: 2139.28 ± 589.06 ng/mL | Tmax [1, 9]: 3.19 ± 0.13 h | Vz [1, 9]: 345.29 ± 120.76 L | t1/2 [1, 9]: 7.85 ± 1.92 h | AUCINF [2, 10]: 7027.46 ± 3017.92 ng·h/mL | AUClast [2, 10]: 6797.36 ± 2919.19 ng·h/mL | Cl [2, 10]: 35.50 ± 18.33 L/h | Cmax [2, 10]: 1356.91 ± 564.13 ng/mL | Tmax [2, 10]: 3.19 ± 0.11 h | Vz [2, 10]: 152.37 ± 94.36 L | t1/2 [2, 10]: 6.07 ± 2.11 h | R ([2]; Part III, metabolite, multiple vs single dose of 180 mg pyragrel, footnote d not given): 1.27 ± 0.13 | AA ([2]; Part III, metabolite, multiple vs single dose of 180 mg pyragrel, footnote e not given): 1.13 ± 0.24 | AUCINF ([2]; single dose of 180 mg pyragrel): 6145.79 ± 2339.86 ng·h/mL | AUClast ([2]; single dose of 180 mg pyragrel): 6022.22 ± 2291.72 ng·h/mL | Cl ([2]; single dose of 180 mg pyragrel): 36.52 ± 23.08 L/h | Cmax ([2]; single dose of 180 mg pyragrel): 1324.23 ± 447.99 ng/mL | Tmax ([2]; single dose of 180 mg pyragrel): 3.25 ± 0.15 h | Vz ([2]; single dose of 180 mg pyragrel): 285.61 ± 221.29 L | t1/2 ([2]; single dose of 180 mg pyragrel): 5.31 ± 1.42 h | Accumulation on repeated dose, in words ([2]; repeated dose of pyragrel 180 mg for 6 days (once- or twice-daily dosing)): no accumulation | LD50 [3]: > 929.7 mg/kg
